Data reported in BindingDB's records for doi:10.1021/cb9000102 (Pfizer, 2009).

Each compound was assayed against Biotin carboxylase (Escherichia coli (strain K12), UniProt P24182) (assay: ACCase-Coupled Enzyme Assay). Conditions: pH 8; 23 °C.
Method: To each well of the plate consisting of 50 mM Hepes (pH 8.0), 100 mM KCl, 1 mM TCEP, 5 mM MgCl2, 0.1 mg/mL BSA, 0.005% (vol/vol) Tween 20, 30 nM E. coli BC, 50 nM E. coli CT, 50 nM biotinylated E. coli BCCP, and 0.5 unit/mL E. coli purine nucleoside phosphorylase was added. […] Reaction progress was monitored by the increase in absorbance at 360 nm. […] Inhibition data were fit to the standard IC50 equation.

| IC50 [µM] | SMILES |
| --- | --- |
| 2.4 | Cc1nc2nc(N)[nH]c2c(O)c1Cc1ccccc1 [amino imidazo-pyridinone, 8] |
| 59.3 | Cc1nc(-c2ccnc(N)n2)cs1 [amino pyrimidine, 6] |
| 8.2 | Nc1nccc(C(=O)c2ccccc2)n1 [amino pyrimidine, 7] |
| 1.29 | CCCCN(Cc1ccccc1)C(=O)c1cnc(N)o1 [amino-oxazole, 2b] |
| 0.007 | Cc1ccccc1CN(Cc1ccc2c(c1)OCCO2)C(=O)c1cnc(N)o1 [amino-oxazole, 2d] |
